Results published in patent US11524962B2, “Substituted pyrrolo[2,3-d]pyrimidines as inhibitors of protein arginine methyl transferase 5 (PRMT5)” (PRELUDE THERAPEUTICS, INCORPORATED, priority 2017, dated 2022).
pIC50: −log10 of the molar value. Read-outs that look alike come from different tables or passages of the source. One block for each compound: values may come before it.

How the values were obtained:
[1] = In vivo brain exposure study in mouse; details: po, mouse CD-1 male, 10 mg/kg p.o.
Protocol: In a mouse (CD-1, male) brain exposure cassette study, Examples 2 and 6 were dosed together at 10 mg/kg each (0.5% Na CMC+0.5% Tween80, solution) via oral gauge (p.o.). At 3 time points (N=3), 2h, 4h and 8h, plasma and brain samples were analyzed for average drug concentrations.
In a mouse (CD-1, male) brain exposure study, Examples 11 was dosed at 10 mg/kg each (0.5% Na CMC+0.5% Tween80, solution) via oral gauge (p.o.). At 3 time points (N=3), 1 h, 2h and 4h, plasma and brain samples were analyzed for average drug concentrations.

[2] = test system: U-87 MG cells; test: Cell proliferation assay in U-87 MG cells; type: cell-based; details: Homo sapiens, 240 h, day 10, read-out: Prolif_U87 IC50
Protocol: One day before experiment, Granta-519 cells were passaged to a density of 0.5×10^6 cells/ml. U-87 MG cells were trypsinized and 2,000 cells were seeded into 96-well plates and allow to grow overnight. On the day of experiment (day 0), Granta-519 Cells were spun down at 1,500 rpm for 4 min, resuspended in fresh medium to 0.5×10^6 cells/ml and 190 ul of cells were added to 96 well plates. For U-87 MG cells, old medium was removed and replaced with 190 uL fresh medium. Compound working stocks were first diluted at 1:50 with fresh medium in 96 well plate and 10 μL of diluted drugs were added to 96 well plates containing cells and incubated for 3 days. DMSO was used a vehicle control.
One day 3, 50 uL of Granta-519 cells were transferred to a new 96-well plate and 140 uL fresh medium was added. For U-87 MG cells, old medium was removed and replaced with 190 uL fresh medium. Compound working stocks were freshly diluted at 1:50 with medium and 10 μL of diluted drugs were added to cells and grow for 3 additional days. The same process was repeated on day 6. Cells were allowed to grow for additional 4 days.
On day 10, 100 uL Granta-519 cells were transferred to a new 96 well plate and 10 μL of Cell Counting Kit-8 (CCK-8, Jojindo, CK04-13) solution was added. For U-87 MG cells, old medium was removed and replaced with 100 uL fresh medium and 10 uL CCK-8 solution was added. Plates were incubated in CO2 incubator for 2 hours (Granta-519 cells) or 30 min (U-87 MG cells) and OD450 values were measured with a microplate reader (iMark microplate reader, Bio-Rad). Percentage of viable cells, relative to DMSO vehicle control, were calculated and plotted in Graphpad Prism ([Inhibitor]vs. normalized response−Variable slope) to determine proliferation IC50 values on day 10.
These cell proliferation procedures produced the data in Table 7.

[3] = In vivo pharmacokinetic study in rat; details: for clearance / half-life / Vd / bioavailability: Sprague-Dawley (SD), blood; for clearance / half-life / Vd: iv; for Vd: read-out: Vss; for bioavailability: po
Protocol: In a rat (SD, male, non-fasted) non-crossover cassette (n=2) PK study, Example 1 was dosed at 0.5 mg/kg (DMA: […]=5:95, solution) with another compound via i.v. administration (N=3) and 2 mg/kg (0.5% o Na CMC+0.50% Tween80, suspension) with another compound via oral gauge (p.o.) (N=3).
In a rat (SD, male and female, non-fasted) non-crossover cassette (n=4) PK study, Example 6 was dosed at 0.2 mg/kg (DMA: […]=5:95, solution) with other 3 compounds via i.v. administration (N=2 per sex) and 2 mg/kg (0.5% o Na CMC+0.50% Tween80, suspension) with other 3 compounds via oral gauge (p.o.) (N=2 per sex).
In a rat (SD, male and female, non-fasted) non-crossover PK study, Example 11 was dosed at 1 mg/kg (DMA: 20% HPBCD=5:95, solution) via i.v. administration (N=3 per sex) and 3 mg/kg (0.5% Na CMC+0.5% Tween80, suspension) via oral gauge (p.o.) (N=3 per sex).

[4] = cassette, brain, read-out: Brain-2 h
[5] = cassette, brain, read-out: Brain-4 h
[6] = cassette, brain, read-out: Brain-8 h
[7] = cassette, plasma, read-out: Plasma-2 h
[8] = cassette, plasma, read-out: Plasma-4 h
[9] = cassette, plasma, read-out: Plasma-8 h
[10] = rat SD female, i.v. 0.2 mg/kg, cassette
[11] = rat SD male, i.v. 0.2 mg/kg, cassette
[12] = rat SD female, p.o. 2 mg/kg, cassette (n=4)
[13] = rat SD male, p.o. 2 mg/kg, cassette (n=4)
[14] = rat SD male, i.v. 0.5 mg/kg, cassette

concentration at 2 h [1, 4]: 183 ng/g
concentration at 4 h [1, 5]: 45.9 ng/g
concentration at 8 h [1, 6]: 50.5 ng/g
concentration at 2 h [1, 7]: 380 ng/mL
concentration at 4 h [1, 8]: 138 ng/mL
concentration at 8 h [1, 9]: 33.7 ng/mL
pIC50 [2]: 6.94
clearance [3, 10]: 21.6 mL/min/kg
half-life [3, 10]: 1.69 h
Vd [3, 10]: 1.91 L/kg
clearance [3, 11]: 59.2 mL/min/kg
half-life [3, 11]: 0.46 h
Vd [3, 11]: 1.81 L/kg
bioavailability [3, 12]: > 100%
bioavailability [3, 13]: 51.1%
dose normalized AUC [3, 12]: 1143 ng·kg·h/mL/mg
dose normalized AUC [3, 13]: 144 ng·kg·h/mL/mg
Compound: Nc1ncnc2c1c(F)cn2[C@@H]1O[C@H]([C@H](O)c2ccc3c(c2)CC3)[C@@H](O)[C@H]1O [Example 6, (2R,3R,4S,5R)-2-(4-amino-5-fluoro-7H-pyrrolo[2,3-d]pyrimidin-7-yl)-5-((R)-bicyclo[4.2.0]octa-1(6),2,4-trien-3-yl(hydroxy)methyl)tetrahydrofuran-3,4-diol]

concentration at 2 h [1, 4]: 244 ng/g
concentration at 4 h [1, 5]: 174 ng/g
concentration at 8 h [1, 6]: 76.2 ng/g
concentration at 2 h [1, 7]: 1610 ng/mL
concentration at 4 h [1, 8]: 802 ng/mL
concentration at 8 h [1, 9]: 178 ng/mL
Compound: Nc1ncnc2c1ccn2[C@@H]1O[C@H]([C@H](O)c2ccc3c(c2)CC3)[C@@H](O)[C@H]1O [Example 2, (2R,3R,4S,5R)-2-(4-amino-7H-pyrrolo[2,3-d]pyrimidin-7-yl)-5-((R)-bicyclo[4.2.0]octa-1(6),2,4-trien-3-yl(hydroxy)methyl)tetrahydrofuran-3,4-diol]

clearance [3, 14]: 56.2 mL/min/kg
half-life [3, 14]: 0.35 h
Vd [3, 14]: 1.36 L/kg
dose normalized AUC ([3]; rat SD male, p.o. 2 mg/kg, cassette): 145 ng·kg·h/mL/mg
Compound: C[C@@](O)(c1ccc2c(c1)CC2)[C@H]1O[C@@H](n2ccc3c(N)ncnc32)[C@H](O)[C@@H]1O [Example 1, (2R,3R,4S,5S)-2-(4-amino-7H-pyrrolo[2,3-d]pyrimidin-7-yl)-5-((R)-1-(bicyclo[4.2.0]octa-1(6),2,4-trien-3-yl)-1-hydroxyethyl)tetrahydrofuran-3,4-diol]

Compound: Cc1ncnc2c1ccn2[C@@H]1O[C@H]([C@H](O)c2ccc3c(c2)CC3)[C@@H](O)[C@H]1O [Example 11, (2R,3S,4R,5R)-2-((R)-bicyclo[4.2.0]octa-1(6),2,4-trien-3-yl(hydroxy)methyl)-5-(4-methyl-7H-pyrrolo[2,3-d]pyrimidin-7-yl)tetrahydrofuran-3,4-diol]
concentration at 1 h ([1]; brain, read-out: Brain-1 h): 188 ng/g
concentration at 2 h ([1]; brain, read-out: Brain-2 h): 85.7 ng/g
concentration at 4 h ([1]; brain, read-out: Brain-4 h): 50.2 ng/g
concentration at 1 h ([1]; plasma, read-out: Plasma-1 h): 207 ng/mL
concentration at 2 h ([1]; plasma, read-out: Plasma-2 h): 148 ng/mL
concentration at 4 h ([1]; plasma, read-out: Plasma-4 h): 53.6 ng/mL
pIC50 [2]: 6.69
clearance ([3]; rat SD female, i.v. 1 mg/kg): 37.2 mL/min/kg
half-life ([3]; rat SD female, i.v. 1 mg/kg): 1.84 h
Vd ([3]; rat SD female, i.v. 1 mg/kg): 2.71 L/kg
clearance ([3]; rat SD male, i.v. 1 mg/kg): 77.5 mL/min/kg
half-life ([3]; rat SD male, i.v. 1 mg/kg): 1.06 h
Vd ([3]; rat SD male, i.v. 1 mg/kg): 2.85 L/kg
bioavailability ([3]; rat SD female, p.o. 3 mg/kg): 97%
bioavailability ([3]; rat SD male, p.o. 3 mg/kg): 13%
dose normalized AUC ([3]; rat SD female, p.o. 3 mg/kg): 434 ng·kg·h/mL/mg
dose normalized AUC ([3]; rat SD male, p.o. 3 mg/kg): 33 ng·kg·h/mL/mg
